Laboratory results: patent US20060079453A1, “Hla binding peptides and their uses” (priority 2002, published 2006)
Where two headings read alike, the source gives them in different places. No end group written: not given here.

Key:
Assay in all cases: biochemical
Format in all cases: binding
HLA-DR DRB1*1101 (DR11) = HLA-DR DRB1*1101 (DR11) (Homo sapiens, UniProt P01903+P01911, A100R/A169T/A87E/I96F/K41T/L162R/M171V/P40S/Q125H/Q178H/Q39Y/Q99D/R42S/S66Y/T262R/V115G/W38E)
HLA-DR DRB1*0401 (DR4) = HLA-DR DRB1*0401 (DR4) (Homo sapiens, UniProt P01903+P01911, A100K/A169T/F76Y/I96L/K127E/L162R/M171V/N62H/P40V/Q125Y/R42H/S133A/S149N/S66Y/V115G/V209L/W38E)
HLA-DR DRB1*0901 (DR9) = HLA-DR DRB1*0901 (DR9) (Homo sapiens, UniProt P01903+P01911, A100R/A103E/D57H/D86V/F55Y/F60I/F76Y/I96F/K127E/L162R/M171V/P40D/Q125H/Q99R/R33Q/R42F/S133A/S66N/T210M/V115G/W38K/Y107V/Y59G/Y89S)
HLA-DR DRB4*0101 (DR53) = HLA-DR DRB4*0101 (DR53) (Homo sapiens, UniProt P01903+P13762, G164S)
HLA-DR DRB1*1302 (DR13) = HLA-DR DRB1*1302 (DR13) (Homo sapiens, UniProt P01903+P01911, A100E/A169T/K41T/L162R/M171V/P40S/Q125H/Q178H/Q39Y/Q99D/R42S/S66N/T262R/V115G/W38E/Y61H)
HLA-DR DRB1*1302 (DR13), sequence (P01903 26-254 limits assumed, other chains not shown): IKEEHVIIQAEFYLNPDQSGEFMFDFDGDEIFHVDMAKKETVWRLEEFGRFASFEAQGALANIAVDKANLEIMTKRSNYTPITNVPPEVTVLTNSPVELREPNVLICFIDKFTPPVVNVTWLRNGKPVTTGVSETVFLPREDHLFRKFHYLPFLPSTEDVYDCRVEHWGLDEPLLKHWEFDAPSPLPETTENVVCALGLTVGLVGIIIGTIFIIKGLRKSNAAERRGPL

HLA-DR DRB1*1501 (DR15) = HLA-DR DRB1*1501 (DR15) (Homo sapiens, UniProt P01903+P01911)
HLA-DR DRB1*0301 (DR3) = HLA-DR DRB1*0301 (DR3) (Homo sapiens, UniProt P01903+P01911, A100K/A102G/A103R/A169T/F55Y/I96L/K41T/L162R/M171V/P40S/Q125H/Q178H/Q39Y/R42S/S66N/T106N/T262R/W38E/Y61H)
HLA-DR DRB1*0301 (DR3), sequence (P01903 26-254 limits assumed, other chains not shown): as above

HLA-DR DRB1*0101 (DR1) = HLA-DR DRB1*0101 (DR1) (Homo sapiens, UniProt P01903+P01911, A100R/D57E/F55L/F60I/F76Y/I96L/L162R/M171V/P40L/Q125E/R42F/V115G/Y59C)
HLA-DR DRB1*0405 (DR4) = HLA-DR DRB1*0405 (DR4) (Homo sapiens, UniProt P01903+P01911, A100R/A169T/D86S/F76Y/I96L/K127E/L162R/M171V/N62H/P40V/Q125Y/R42H/S133A/S149N/S66Y/V115G/V209L/W38E)
HLA-DR DRB1*0802 (DR8) = HLA-DR DRB1*0802 (DR8) (Homo sapiens, UniProt P01903+P01911, A100R/A103L/A169T/F76Y/H45Y/I96F/K41T/L162R/M171V/P40S/Q125H/Q178H/Q39Y/Q99D/R218S/R42G/S66Y/V115G/W38E)
HLA-DR DRB1*0701 (DR7) = HLA-DR DRB1*0701 (DR7) (Homo sapiens, UniProt P01903+P01911, A100R/A102G/A103Q/D57E/D86V/E43K/F76Y/K127E/L162R/M171V/P40G/Q125H/Q99D/R33Q/R42Y/R54Q/S133A/S66F/T210M/V115G/Y107V/Y59L/Y89S)
HLA-DR DRB5*0101 (DR51) = HLA-DR DRB5*0101 (DR51) (Homo sapiens, UniProt P01903+Q30154); settings: DRB5 *0101

HLA-DR DRB1*1101 (DR11), sequence (P01903 26-254 limits assumed, other chains not shown): as above

Molecule | IC50 (HLA-DR DRB1*1101 (DR11); DRB1 *1101) [µM] | IC50 (HLA-DR DRB1*0401 (DR4); DRB1 *0401) [µM] | IC50 (HLA-DR DRB1*0901 (DR9); DRB1 *0901) [µM] | IC50 (HLA-DR DRB1*1302 (DR13); DRBI *1302) [µM] | IC50 (HLA-DR DRB1*0301 (DR3)) [µM] | IC50 (HLA-DR DRB1*0101 (DR1); DRB1 *0101) [µM] | IC50 (HLA-DR DRB1*0405 (DR4); DRB1 *0405) [µM] | IC50 (HLA-DR DRB1*0802 (DR8); read-out: DRB1 *0802) [µM] | IC50 (HLA-DR DRB1*0401 (DR4); read-out: DRB1 *0401) [µM] | IC50 (HLA-DR DRB1*0405 (DR4); read-out: DRB1 *0405) [µM] | IC50 (HLA-DR DRB4*0101 (DR53); DRB4 *0101) [µM] | IC50 (HLA-DR DRB5*0101 (DR51)) [µM] | IC50 (HLA-DR DRB1*0701 (DR7); DRB1 *0701) [µM] | IC50 (HLA-DR DRB1*1501 (DR15); DRBI *1501) [µM] | IC50 (HLA-DR DRB1*0802 (DR8)) [µM] | further results
CC[C@H](C)[C@H](NC(=O)[C@H](Cc1ccc(O)cc1)NC(=O)[C@@H]1CCCN1C(=O)[C@H](CC(=O)O)NC(=O)[C@H](CCC(=O)O)NC(=O)[C@H](CC(C)C)NC(=O)[C@@H](NC(=O)[C@H](C)NC(=O)[C@@H](N)CCC(=O)O)C(C)C)C(=O)N[C@@H](CC(C)C)C(=O)N[C@@H](CC(C)C)C(=O)N[C@H](C(=O)N[C@@H](CO)C(=O)N[C@@H](CO)C(=O)N[C@@H](CCCCN)C(=O)O)C(C)C | 4.38 | 0.233 | 15 | > 10.3 | 0.479 | 0.034 | 0.681 | – | – | – | – | – | – | – | – | IC50 (HLA-DR DRB4*0101 (DR53)): > 26.4 µM; IC50 (HLA-DR DRB1*1501 (DR15)): > 50.8 µM
VRVEILRYFYVINRL | – | – | – | – | – | – | – | 3.58 | 0.14 | 0.018 | – | – | – | – | – | IC50 (HLA-DR DRB1*0901 (DR9); read-out: DRB1 *0901): 0.485 µM; IC50 (HLA-DR DRB1*0701 (DR7); read-out: DRB1 *0701): 0.014 µM; IC50 (HLA-DR DRB1*0101 (DR1); read-out: DRB1 *0101): 0.0018 µM
LRTLQQMLLGTLQVV | 0.907 | 0.437 | 5.08 | 0.616 | > 3750 | 0.08 | 0.079 | – | – | – | 0.088 | > 46.6 | 6.91 | 1.7 | – | –
CC[C@H](C)[C@H](N)C(=O)N[C@@H](C)C(=O)NCC(=O)N[C@@H](CC(C)C)C(=O)N[C@@H](Cc1ccccc1)C(=O)N[C@@H](CC(C)C)C(=O)N[C@H](C(=O)N[C@H](C(=O)N[C@@H](CCC(=O)O)C(=O)N[C@@H](C)C(=O)N[C@H](C(=O)N[C@H](C(=O)N[C@@H](C)C(=O)N[C@@H](CC(=O)O)C(=O)N[C@@H](CCCCN)C(=O)O)C(C)C)C(C)C)[C@@H](C)O)[C@@H](C)O | – | – | – | – | – | – | – | – | – | – | – | – | – | – | 3.89 | IC50 (HLA-DR DRB1*1101 (DR11)): 0.867 µM; IC50 (HLA-DR DRB1*0401 (DR4)): 0.013 µM; IC50 (HLA-DR DRB1*0901 (DR9)): 0.409 µM; IC50 (HLA-DR DRB4*0101 (DR53)): > 26.4 µM; IC50 (HLA-DR DRB1*0701 (DR7)): 0.23 µM; IC50 (HLA-DR DRB1*1302 (DR13)): > 10.3 µM; IC50 (HLA-DR DRB1*1501 (DR15)): > 50.8 µM; IC50 (HLA-DR DRB1*0101 (DR1)): 0.0068 µM; IC50 (HLA-DR DRB1*0405 (DR4)): 0.067 µM
ALSTLVLNRLKVGLQ | 0.0091 | 0.517 | 2.17 | 0.0046 | – | 0.049 | 2.17 | – | – | – | 0.017 | 0.0039 | 0.647 | 0.191 | 0.004 | –
FAGIRRDGLLLRLVD | – | – | – | – | – | – | – | 7.65 | 7.09 | > 3.37 | – | – | – | – | – | IC50 (HLA-DR DRB1*0701 (DR7); read-out: DRB1 *0701): 41.1 µM; IC50 (HLA-DR DRB1*0301 (DR3); read-out: DRB1 *0301): 0.0036 µM
CC[C@H](C)[C@H](NC(=O)[C@@H](NC(=O)[C@H](CC(C)C)NC(=O)[C@H](CC(=O)O)NC(=O)[C@@H](NC(=O)[C@H](Cc1ccccc1)NC(=O)[C@H](C)NC(=O)[C@H](Cc1ccccc1)NC(=O)[C@H](CC(=O)O)NC(=O)[C@H](CC(C)C)NC(=O)[C@@H](N)C(C)C)[C@@H](C)O)[C@@H](C)O)C(=O)N[C@H](C(=O)N[C@@H](Cc1ccc(O)cc1)C(=O)N[C@@H](CCCNC(=N)N)C(=O)N[C@@H](CC(=O)O)C(=O)O)C(C)C | 7.47 | – | 0.252 | 3.1 | 0.03 | 0.354 | 0.721 | – | – | – | 11.3 | 14.8 | 0.23 | 0.645 | – | –
RTSIRASLTFNRGFK | 4.81 | 0.77 | – | – | 0.256 | – | 5.13 | – | – | – | 0.079 | – | 0.411 | – | 5.48 | –
CSCC[C@H](NC(=O)[C@H](CCC(N)=O)NC(=O)[C@@H](NC(=O)[C@H](Cc1ccccc1)NC(=O)[C@H](C)NC(=O)[C@@H](NC(=O)CN)[C@@H](C)O)C(C)C)C(=O)N1CCC[C@H]1C(=O)N[C@@H](C)C(=O)N[C@@H](Cc1c[nH]cn1)C(=O)NCC(=O)N[C@@H](CC(C)C)C(=O)N[C@@H](Cc1ccccc1)C(=O)N1CCC[C@H]1C(=O)N[C@@H](Cc1c[nH]c2ccccc12)C(=O)O | 0.017 | 0.0081 | – | 2.82 | 37.3 | 0.0016 | 0.018 | – | – | – | – | 0.043 | 0.09 | 0.0012 | 0.099 | –
ESTGMTPEKVPVSEVMGT | – | – | – | – | – | – | – | > 31.2 | > 47.4 | > 71.4 | – | – | – | – | – | IC50 (HLA-DR DRB1*0301 (DR3); read-out: DRB1 *0301): > 50 µM
